Source: patent US9198433B2, “Substituted benzene fungicides” (E I DU PONT DE NEMOURS AND COMPANY, priority 2007, dated 2015)
Marks after values point to notes of the source that are not given here.

Assays:
Format in all cases: in vivo
[1] = system: Alternaria solani; assay: Test H: tomato early blight, preventive spray on tomato seedlings, disease rating
Text: (§1) The test compounds were first dissolved in acetone in an amount equal to 3% of the final volume and then suspended at the desired concentration (in ppm) in acetone and purified water (50/50 mix) containing 250 ppm of the surfactant Trem® 014 (polyhydric alcohol esters). The resulting test suspensions were then used in Tests A-L. Spraying a 200 ppm test suspension to the point of run-off on the test plants was the equivalent of an application rate of 500 g/ha. The test suspension was sprayed to the point of run-off on tomato seedlings. […] A dash (-) indicates no test results. All results are for 200 ppm except where followed by an “*”, which indicates 40 ppm or “**”, which indicates 50 ppm.

[2] = system: Puccinia recondita f. sp. tritici; assay: Test B: wheat leaf rust, preventive spray on wheat seedlings, disease rating
Text: (§2) The test compounds were first dissolved in acetone in an amount equal to 3% of the final volume and then suspended at the desired concentration (in ppm) in acetone and purified water (50/50 mix) containing 250 ppm of the surfactant Trem® 014 (polyhydric alcohol esters). The resulting test suspensions were then used in Tests A-L. Spraying a 200 ppm test suspension to the point of run-off on the test plants was the equivalent of an application rate of 500 g/ha. The test suspension was sprayed to the point of run-off on wheat seedlings. […] A dash (-) indicates no test results. All results are for 200 ppm except where followed by an “*”, which indicates 40 ppm or “**”, which indicates 50 ppm.

[3] = system: Septoria nodorum; assay: Test C: wheat glume blotch, preventive spray on wheat seedlings, disease rating
Text: as §2

[4] = system: Erysiphe graminis f. sp. tritici; assay: Test A: wheat powdery mildew, preventive spray on wheat seedlings, disease rating
Text: as §2

[5] = system: Septoria tritici; assay: Test D: wheat leaf blotch, preventive spray on wheat seedlings, disease rating
Text: The test compounds were first dissolved in acetone in an amount equal to 3% of the final volume and then suspended at the desired concentration (in ppm) in acetone and purified water (50/50 mix) containing 250 ppm of the surfactant Trem® 014 (polyhydric alcohol esters). The resulting test suspensions were then used in Tests A-L. Spraying a 200 ppm test suspension to the point of run-off on the test plants was the equivalent of an application rate of 500 g/ha. The test suspension was sprayed to the point of run-off on wheat seedlings. The following day the seedlings were inoculated with a spore suspension of Septoria tritici (the causal agent of wheat leaf blotch) and incubated in a saturated atmosphere at 24° C. for 48 h, and then moved to a growth chamber at 20° C. for 19 days, after which time disease ratings were made. […] A dash (-) indicates no test results. All results are for 200 ppm except where followed by an “*”, which indicates 40 ppm or “**”, which indicates 50 ppm.

[6] = system: Botrytis cinerea; assay: Test F: tomato Botrytis, preventive spray on tomato seedlings, disease rating
Text: as §1

[7] = 200 ppm, 100 = 100% disease control, 0 = no control relative to controls

Row | SMILES | Percentage Disease Control, Test H ([1]; 200 ppm) [%] | Percentage Disease Control, Test A ([4]; 40 ppm (*)) | Percentage Disease Control, Test D ([5]; 40 ppm (*)) | Percentage Disease Control, Test F ([6]; 200 ppm) [%] | Percentage Disease Control, Test H ([1]; 40 ppm (*)) | Percentage Disease Control, Test B ([2]; 40 ppm (*)) | Percentage Disease Control, Test C ([3]; 40 ppm (*)) | Percentage Disease Control, Test F ([6]; 40 ppm (*)) | other results
1 | COC(=O)NCc1cc(-c2c[nH]nn2)ccc1Cl [Cmpd 145] | – | – | – | – | – | – | – | – | Percentage Disease Control, Test H [1, 7]: 15%; Percentage Disease Control, Test B [2, 7]: 0%; Percentage Disease Control, Test C [3, 7]: 0%; Percentage Disease Control, Test A [4, 7]: 0%; Percentage Disease Control, Test D [5, 7]: 30%; Percentage Disease Control, Test F [6, 7]: 0%
2 | CON=C(C(=O)OC)c1cc(-c2ccn(-c3cccc(C(F)(F)F)c3)n2)ccc1C [Cmpd 84] | 54 | 98* % | 99* % | 67 | – | – | – | – | Percentage Disease Control, Test B ([2]; 200 ppm): 80%; Percentage Disease Control, Test C ([3]; 200 ppm): 92%
3 | COC(=O)NCc1cc(-c2ccn(-c3nc(SCc4ccccc4)ns3)n2)ccc1Cl [Cmpd 91] | 33 | – | – | 0 | – | – | – | – | Percentage Disease Control, Test B ([2]; 200 ppm): 85%; Percentage Disease Control, Test C ([3]; 200 ppm): 64%; Percentage Disease Control, Test A ([4]; 200 ppm): 0%; Percentage Disease Control, Test D ([5]; 200 ppm): 97%
4 | COC(=O)NCc1cc(-c2ncn(-c3cccc(C(F)(F)F)c3)n2)ccc1Cl [Cmpd 89] | – | 100* % | 100* % | 0 | 89* % | 100* % | 100* % | – | –
5 | COC(=O)NCc1cc(-c2cc(-c3ccc(C(C)(C)C)cc3)[nH]n2)ccc1Cl [Cmpd 99] | 0 | – | – | 98 | – | – | – | – | Percentage Disease Control, Test B ([2]; 200 ppm): 74%; Percentage Disease Control, Test C ([3]; 200 ppm): 0%; Percentage Disease Control, Test A ([4]; 200 ppm): 82%; Percentage Disease Control, Test D ([5]; 200 ppm): 92%
6 | COC(=O)NCc1cc(-c2ccn(Cc3ccc(-c4ccccc4C#N)cc3)n2)ccc1Cl [Cmpd 55] | – | 88* % | 95* % | – | 16* % | 88* % | 92* % | 0* % | –
7 | COC(=O)NCc1cc(-c2ccn(CCC(=O)c3ccc(Cl)cc3)n2)ccc1Cl [Cmpd 56] | – | 89* % | 90* % | – | 92* % | 97* % | 97* % | 0* % | –
8 | COC(=O)NCc1cc(C(C)=NOC[Si](C)(C)Cc2ccccc2)ccc1Cl [Compound 17] | 38 | – | 100* % | 0 | – | 99* % | – | – | Percentage Disease Control, Test C ([3]; 200 ppm): 100%; Percentage Disease Control, Test A ([4]; 200 ppm): 67%
9 | COC(=O)NCc1cc(C(C)=NOC[Si](C)(C)c2ccccc2)ccc1Cl [Compound 15] | 33 | 100* % | 100* % | 0 | – | 100* % | 100* % | – | –
10 | COC(=O)NCc1cc(-n2ccc(-c3ccc(Br)cc3)n2)ccc1Cl [Cmpd 124] | – | 100* % | 100* % | 0 | 99* % | 100* % | 100* % | – | –
11 | COC(=O)NCc1cc(-c2ccn(-c3cccc(C)c3)n2)ccc1Cl [Cmpd 81] | – | 85* % | 99* % | – | 97* % | 99* % | 100* % | 81* % | –
12 | COC(=O)NCc1cc(-c2ccn(-c3ccc(F)cc3)n2)ccc1Cl [Cmpd 116] | 99 | – | – | 0 | – | – | – | – | Percentage Disease Control, Test B ([2]; 200 ppm): 100%; Percentage Disease Control, Test C ([3]; 200 ppm): 100%; Percentage Disease Control, Test A ([4]; 200 ppm): 99%; Percentage Disease Control, Test D ([5]; 200 ppm): 96%
13 | COC(=O)NCc1cc(-c2ccn(CCOc3ccccc3)n2)ccc1Cl [Cmpd 59] | – | 98* % | 97* % | – | 87* % | 100* % | 99* % | 0* % | –
14 | COC(=O)NCc1cc(-c2ccn(-c3cccc(Br)c3)n2)ccc1Cl [Cmpd 112] | 93 | – | 100* % | 0 | – | 99* % | 100* % | – | Percentage Disease Control, Test A ([4]; 200 ppm): 88%
15 | COC(=O)NCc1cc(-c2ccn(Cc3ccccc3C)n2)ccc1Cl [Cmpd 70] | – | 99* % | 100* % | – | 96* % | 99* % | 100* % | – | –
16 | COC(=O)NCc1cc(-c2ccn(-c3ccc(C#N)cc3)n2)ccc1Cl [Cmpd 114] | 0 | – | – | 0 | – | – | – | – | Percentage Disease Control, Test B ([2]; 200 ppm): 99%; Percentage Disease Control, Test C ([3]; 200 ppm): 100%; Percentage Disease Control, Test A ([4]; 200 ppm): 93%; Percentage Disease Control, Test D ([5]; 200 ppm): 100%
17 | COC(=O)NCc1cc(-c2ccn(Cc3ccccc3OC(F)(F)F)n2)ccc1Cl [Cmpd 76] | – | 99* % | 100* % | – | 0* % | 100* % | 99* % | 0* % | –
18 | COC(=O)NCc1cc(-c2ccnc(C(F)(F)F)n2)ccc1Cl [Cmpd 138] | – | – | – | – | – | – | – | – | Percentage Disease Control, Test H [1, 7]: 0%; Percentage Disease Control, Test B [2, 7]: 48%; Percentage Disease Control, Test C [3, 7]: 92%; Percentage Disease Control, Test A [4, 7]: 56%; Percentage Disease Control, Test D [5, 7]: 77%; Percentage Disease Control, Test F [6, 7]: 0%
19 | COC(=O)NCc1cc(-c2cc(C(F)(F)F)n(CCC(C)(C)C)n2)ccc1Cl [Cmpd 101] | 0 | 98* % | 95* % | 0 | – | 99* % | 100* % | – | –
20 | CCCn1nc(-c2ccc(Cl)c(CNC(=O)OC)c2)cc1C(F)(F)F [Cmpd 103] | – | 99* % | 99* % | 0 | – | 98* % | – | – | Percentage Disease Control, Test C ([3]; 200 ppm): 87%
21 | COC(=O)NCc1cc(-c2ccn(-c3ccc(-c4ccccc4)cc3)n2)ccc1Cl [Cmpd 82] | – | 60* % | – | – | 7* % | 0* % | 86* % | 0* % | –
22 | CCCCn1nc(-c2ccc(Cl)c(CNC(=O)OC)c2)cc1C(F)(F)F [Cmpd 102] | – | 98* % | 98* % | 0 | – | 98* % | 96* % | – | –
23 | COC(=O)NCc1cc(-c2ccn(Cc3cccc(C)c3)n2)ccc1Cl [Cmpd 71] | – | 99* % | 100* % | – | 84* % | 100* % | 100* % | – | –
24 | COC(=O)NCc1cc(-c2ccn(-c3ccc(OC(F)(F)F)cc3)n2)ccc1Cl [Cmpd 77] | – | 99* % | 100* % | – | 96* % | 100* % | 100* % | – | –
25 | COC(=O)NCc1cc(-c2ccn(-c3ccc(C(F)(F)F)cc3)n2)ccc1Cl [Cmpd 79] | – | 99* % | 99* % | – | – | 99* % | 100* % | 0* % | –
26 | COC(=O)NCc1cc(-c2ccn(-c3ccccc3C(C)=O)n2)ccc1Cl [Cmpd 54] | – | 99* % | 99* % | – | – | 100* % | 99* % | 0* % | –
